“Also recorded” adds a separate entry of the source.
Assays:
[1] = system: KRas-induced lung cancer; test: KRas-induced lung cancer (AdCre inhalation); assay type: in vivo, mice
Procedure: Atg5fl/fl mice were kindly given by Dr Noboru Mizushima. LSL-K-rasG12D;Atg5fl/fl mice were obtained as described in^7. In all experiments, only littermate mice were used as controls. All mice were maintained according to the ethical animal licence protocol complying with the Austrian and European legislation. All experiments were approved by Bundesministerium for Wissenschaft and Forschung, Austria (BMWF-66.015/0013-II/3b/2012).
Inhalation of 6-8-week-old mice with AdCre viruses was performed as previously reported (REF). In brief, experimental animals were anaesthetized with 10% Ketasol/Xylasol and placed on a heated pad. An AdCre-CaCl2 precipitate was produced by mixing […], 2.5 ml AdCre (1010 p.f.u. ml_1; University of Iowa, Gene Transfer Vector Core Iowa, USA) and 0.6 ml CaCl2 (1 M) for each mouse and incubated for 20 min at room temperature. One week after AdCre inhalation, mice were administered with 900 mg/kg HC per body weight in drinking water for 5 weeks and tumors lesions were evaluated by immunohistochemistry.
For KRas-induced lung cancers hisology, […] sections from at least three different planes were cut and stained with haematoxylin and eosin. Sections were scanned using a Mirax slide scanner and lung/tumour areas were automatically scored by an algorithm programmed and executed using the Definiens software suite and visually analyzed in a double blinded fashion. Immunhistochemical staining was performed by automatic staining machine (Leica Bond3) or manually processed. Sections were dehydrated and antigenic epitopes were retrieved using a 10-mM citrate buffer and microwaving for 10 min. Specimen were then incubated with rabbit polyclonal anti-Foxp3 (eBioscience, 13-5773, :100), anti-CD3E (Santa Cruz, 101442, 1:100). Primary Ab staining was detected by peroxidase conjugated anti-rabbit IgG (DAKO, P0448, 1:500). Positive cells were counted on 20 randomly chosen tumour areas at _400 magnifications in a double blinded fashion. Quantitative analysis was performed using HistoQuest software (TissueGnostics GmbH, Vienna, Austria; http://www.tissuegnostics.com).

[2] = system: CT26 derived tumors expressing pmeLUC; test: Real time in vivo imaging of ATP release; design: species or system mice; conditions: autophagy competent tumors, 48 hours post chemotherapy
Procedure: BALB/c mice were subcutaneously inoculated with 3×10^5 SCR or ATG5^KD CT26 clones stably expressing pmeLUC probe, and tumor growth was monitored every 2 days. When tumor became palpable (about 8 days after injection), mice were divided in four experimental groups. The first one was intraperitoneally injected with 200 µl PBS and after 48 hs from the first injection, 200 µl of PBS was injected again (control group). The second one was injected the first time with 100 mg/kg hydroxycitrate in 200 µl of PBS and 48 hs later again 100 mg/kg hydroxycitrate in 200 µl of PBS. The third one was intraperitoneally injected with 100 mg/kg hydroxycitrate in 200 µl of PBS and 48 hs later with 100 mg/kg hydroxycitrate in 200 µl of PBS and 5.17 mg/Kg MTX in 200 µl di PBS. The last group were injected the first time with 200 µl of PBS and 48 hs later with 5.17 mg/Kg MTX in 200 µl di PBS. Thereafter, mice were anesthetized and imaged with Xenogen—IVIS® Lumina II (Caliper, Hopkinton, Mass., USA). D-luciferin (150 mg/kg) was intraperitoneally administered to mice 15 minutes before acquisitions, which were performed immediately before and after 48 hrs from compound injections. The regions of interest were identified around tumor sites and in vivo luminescence was identified as photons/s using the Living ImageH software (Caliper).

[3] = system: MPA/DMBA induced mammary tumors; test: MPA/DMBA induced mammary tumor; assay type: in vivo, mice
Procedure: Six-week-old female Balb/c mice underwent surgical implantation of slow-release MPA (Medroxyprogesterone Acetate) pellets (50 mg, 90-day release; Innovative Research of America) subcutaneously on the right flank. 200 uL of 5 mg/mL DMBA (Dimethylbenzantracene)
(Sigma Aldrich) dissolved in Corn Oil was administered by oral gavage six times during 8 weeks. Tumor formation was monitored by palpation. When tumors became palpable, mice were assigned to following groups of treatment: PBS, HCA, MTX, MTX plus HCA and the MTX plus HCA upon CD4/CD8 lymphocytes depletion. Combinatorial groups were treated as previously described, whereas for CD4/CD8 depletion, mice were intraperitoneally administrated with 500 μg of anti CD4 and CD8 antibodies the day before the onset of the treatment.

[4] = system: MCA205 cells; test: Labeling of vesicular ATP in vitro (quinacrine/PI); assay type: cell-based, murine; conditions: compared to MTX alone
Procedure: MCA205 cells were loaded with […] quinacrine in Krebs-Ringer solution (125 mM NaCl, 5 mM KCl, 1 mM MgSO4, 0.7 mM KH2PO4, 2 mM CaCl2), 6 mM glucose and 25 mM HEPES buffer, pH 7.4) for 30 min at 37 1C. Thereafter, cells were co-stained for 10 min with […] propidium iodide (PI) and […] Hoechst 33342 (both from Molecular Probes-Life Technologies), rinsed with Krebs-Ringer solution and analyzed by automated fluorescence microscopy.

[5] = system: CD4+CD25+Foxp3+ Tregs in tumor bed; test: Detection of tumor-infiltrated Tregs (flow cytometry); assay type: in vivo, mice; conditions: compared with MTX group
Procedure: Tumors were digested using Miltenyi Biotec tumor digestion kit according to manufacturer's protocol. Single cells were resuspended in RPMI 1640 and sequentially passed through 100 μm and 70 μM nylon cell strainers (BD Biosciences). Leukocytes were purified using Miltenyi Biotec magnetic beads conjugated to monoclonal anti-mouse CD45 (clone 30F11.1) according to the supplier's recommendations. Prior to staining of TIL populations for flow cytometry analysis, samples were incubated with LIVE/DEAD® Fixable Yellow Dead Cell dyes (Invitrogen) to discriminate viable cells from damaged cells. TILs were incubated with antibodies against CD16/CD32 before staining with fluorescent-labeled antibodies targeting T-cell surface markers. Then, cells were permeabilized and fixed with eBioscience Foxp3/Transcription Factor Staining Buffer Set and stained for intracellular Foxp3. Data were acquired using a MACSQuant flow cytometer (Miltenyi Biotec) and analyzed with FlowJo v. X PC software (Treestar, Oreg., USA). Tregs were defined as CD3+ CD4+ CD8− CD25+ Foxp3+ T-cell population.

Question: How did the “autophagy (LC3 dots) in KRas induced lung adenocarcinomas” value ([1]; Atg5fl/+ tumors) turn out when O=C(O)CC(O)(C(=O)O)C(O)C(=O)O (stereo not drawn) [HC, hydroxycitrate] was run?
Answer: The value was “induced autophagy in KRas induced lung adenocarcinomas”.

Question: And the “Foxp3+ regulatory T cells in tumor bed” value ([1]; KRas;Atg5fl/+ mice)?
Answer: Its value is “reduces CD3+ FOXP3 Regulatory T cells in tumor bed; also recorded: reduced the density of tumor infiltration by lymphocytes expressing the Treg marker Foxp3”.

Question: What about the “number and size of tumor lesions” value ([1]; KRas;Atg5fl/+ mice, 5 weeks in drinking water) of the same compound?
Answer: Its value is “reduces tumor size and lesions; also recorded: reduced the number and size of Ad-Cre-induced tumor lesions”.

Question: What about the “ratio between CD8+ and Foxp3+ lymphocytes” value ([1]; KRas;Atg5fl/+ tumors) of the same compound?
Answer: The value was “improvement in the ratio between CD8^+ and Foxp3^+ lymphocytes”.

Question: And the “lung cancers in mice without adaptive immunity” value ([1]; Rag2−/− mice, data not shown)?
Answer: The value was “had no positive effect on lung cancers evolving in Rag2^−− mice”.

Question: And the “extracellular ATP release in vivo, combined with MTX” value [2]?
Answer: The value was “significantly enhances ATP release; also recorded: higher level of extracellular ATP accumulation”.

Question: What about the “survival, combined with MTX” value ([3]; Kaplan-Meier) of the same compound?
Answer: Its value is “significantly increased survival”.

Question: What about the “mammary tumor growth and survival, combined with MTX, T cell depleted” value ([3]; depletion of CD4 and CD8 T lymphocytes) of the same compound?
Answer: Its value is “Beneficial effect of combinatorial treatment is lost”.

Question: And the “mammary tumor growth, combined with MTX” value ([3]; mice capable of T-cell dependent immune response)?
Answer: Its value is “significantly diminish tumor growth; also recorded: unless they were combined”.

Question: And the “mammary tumor growth, monotherapy” value ([3]; mouse, in vivo)?
Answer: The value was “had little effect”.

Question: And the “ATP release in vitro, combined with MTX” value [4]?
Answer: The value was “marked increase in ATP release; also recorded: particularly efficient in inducing the autophagy-dependent release of ATP”.

Question: What about the “Foxp3+ Tregs in tumor bed, combined with MTX” value [5] of the same compound?
Answer: The value was “reduces Treg infiltration in tumor bed; also recorded: particularly efficient in reducing the frequency of Foxp3^+ Tregs in tumors”.

Reference: patent US11040052B2, “Methods and pharmaceutical compositions for modulating autophagy in a subject in need thereof” (INSERM (INSTITUT NATIONAL DE LA SANTE ET DE LA RECHERCHE …, priority 2013, dated 2021)
